Source: ChEMBL document CHEMBL4229561, “Design, synthesis, and biological evaluation of selective and potent Carbazole-based butyrylcholinesterase inhibitors” (Bioorg Med Chem, 2018)
pIC50, pKi: −log10 of the molar value. Calls of active or inactive are those of the source. The rule behind the calls is not given here.

Assays:
Acetylcholinesterase = Acetylcholinesterase (Electrophorus electricus, UniProt O42275); assay: Inhibition of electric eel AChE using acetylthiocholine iodide as substrate preincubated for 10 mins followed by substrate addition measured for 5 mins by Ellman's method
[1] = Selectivity index, ratio of IC50 for electric eel AChE to IC50 for equine serum BuChE
Cholinesterase [2] = biological target: T1, Cholinesterase (Equus caballus, UniProt P81908); assay: Inhibition of equine serum BuChE using butyrylthiocholine iodide as substrate preincubated for 10 mins followed by substrate addition measured for 5 mins by Ellman's method
Rattus norvegicus [3] = assay: Reversal of scopolamine-induced memory impairment in albino Wistar rat assessed as decrease in mean training period scape latency at 10 mg/kg, ip by Morris water maze test; format: functional, organism-based
Cholinesterase [4] = biological target: T1, Cholinesterase; assay: Mixed-type inhibition of equine serum BuChE using varying levels of butyrylthiocholine iodide as substrate preincubated for 10 mins followed by substrate addition measured for 5 mins by Lineweaver-Burk plot analysis
Rattus norvegicus [5] = assay: Reversal of scopolamine-induced memory impairment in albino Wistar rat assessed as increase in time spent in target quadrant in probe day at 10 mg/kg, ip by Morris water maze test; format: functional, organism-based
PC-12 [6] = assay: Neuroprotection against H2O2-induced cell death in rat PC12 cells assessed as cell viability at 10 uM preincubated for 3 hrs followed by H2O2 addition measured after 12 hrs by MTT assay relative to control; format: functional; conditions: read-out: Activity
[7] = biological target: Amyloid-beta precursor protein (Homo sapiens) (UniProt P05067); assay: Inhibition of HFIP-pretreated amyloid beta (1 to 42) (unknown origin) self-induced aggregation at 10 uM after 48 hrs by thioflavin-T fluorescence assay relative to control
[8] = biological target: Cholinesterase (Equus caballus) (UniProt P81908); assay: Potency index, ratio of donepezile IC50 to compound IC50 for inhibition of equine serum BuChE
PC-12 [9] = assay: Cytotoxicity against rat PC12 cells assessed as reduction in cell viability at 100 uM by MTT assay; format: cell-based; conditions: pc-12, 100 µM
PC-12 [10] = assay: Neuroprotection against H2O2-induced cell death in rat PC12 cells assessed as increase in cell viability at 1 uM preincubated for 3 hrs followed by H2O2 addition measured after 12 hrs by MTT assay; format: functional, cell-based
Rattus norvegicus [11] = assay: Reversal of scopolamine-induced memory impairment in albino Wistar rat assessed as effect on swimming speed at 5 to 20 mg/kg, ip by Morris water maze test; format: functional, organism-based
[12] = biological target: Cholinesterase (Equus caballus) (UniProt P81908); assay: Potency index, ratio of galantamine IC50 to compound IC50 for inhibition of equine serum BuChE
Rattus norvegicus [13] = assay: Reversal of scopolamine-induced memory impairment in albino Wistar rat assessed as decrease in mean training period traveled distance to find platform at 10 mg/kg, ip by Morris water maze test; format: functional, organism-based
Rattus norvegicus [14] = assay: Reversal of scopolamine-induced memory impairment in albino Wistar rat assessed as decrease in mean training period traveled distance to find platform at 2.5 mg/kg, ip by Morris water maze test; format: functional, organism-based
Rattus norvegicus [15] = assay: Reversal of scopolamine-induced memory impairment in albino Wistar rat assessed as increase in time spent in target quadrant in probe day at 2.5 mg/kg, ip by Morris water maze test; format: functional, organism-based
Rattus norvegicus [16] = assay: Reversal of scopolamine-induced memory impairment in albino Wistar rat assessed as effect on swimming speed at 2.5 mg/kg, ip by Morris water maze test; format: functional, organism-based

T1 sequence (P81908 whole entry): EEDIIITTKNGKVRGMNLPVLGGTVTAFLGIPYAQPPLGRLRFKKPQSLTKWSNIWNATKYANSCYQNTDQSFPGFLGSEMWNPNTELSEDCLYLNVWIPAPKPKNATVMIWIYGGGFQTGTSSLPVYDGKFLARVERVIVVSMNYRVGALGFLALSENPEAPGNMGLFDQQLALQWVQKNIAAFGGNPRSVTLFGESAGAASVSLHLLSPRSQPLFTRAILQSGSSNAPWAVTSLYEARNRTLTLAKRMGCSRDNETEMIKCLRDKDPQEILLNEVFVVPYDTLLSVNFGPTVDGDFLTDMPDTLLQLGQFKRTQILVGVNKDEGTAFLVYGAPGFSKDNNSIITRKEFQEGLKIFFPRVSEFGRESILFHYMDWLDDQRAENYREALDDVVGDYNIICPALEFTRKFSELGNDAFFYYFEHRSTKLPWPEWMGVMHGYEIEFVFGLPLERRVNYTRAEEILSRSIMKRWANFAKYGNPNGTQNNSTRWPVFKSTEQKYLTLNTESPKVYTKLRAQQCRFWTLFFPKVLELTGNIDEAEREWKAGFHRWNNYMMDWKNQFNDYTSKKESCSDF
Acetylcholinesterase, sequence (O42275 whole entry): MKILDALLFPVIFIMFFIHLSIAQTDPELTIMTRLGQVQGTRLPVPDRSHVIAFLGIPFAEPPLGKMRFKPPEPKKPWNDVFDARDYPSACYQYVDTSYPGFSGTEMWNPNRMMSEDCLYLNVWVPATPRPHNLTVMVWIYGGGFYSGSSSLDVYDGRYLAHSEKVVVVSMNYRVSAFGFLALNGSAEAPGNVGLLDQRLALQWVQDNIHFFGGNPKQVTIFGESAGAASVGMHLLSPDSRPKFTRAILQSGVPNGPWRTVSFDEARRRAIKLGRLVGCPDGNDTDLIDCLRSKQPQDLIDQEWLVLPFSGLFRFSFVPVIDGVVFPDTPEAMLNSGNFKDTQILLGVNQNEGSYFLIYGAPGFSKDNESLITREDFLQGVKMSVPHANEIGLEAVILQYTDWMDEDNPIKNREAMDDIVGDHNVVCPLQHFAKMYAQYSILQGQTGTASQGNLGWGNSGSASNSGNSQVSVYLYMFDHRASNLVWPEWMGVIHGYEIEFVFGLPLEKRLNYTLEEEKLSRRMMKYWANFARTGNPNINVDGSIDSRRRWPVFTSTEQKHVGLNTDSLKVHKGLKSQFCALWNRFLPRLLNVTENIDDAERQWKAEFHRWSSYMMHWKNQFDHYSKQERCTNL
Cholinesterase (Equus caballus), sequence (P81908 whole entry): as the sequence (P81908 whole entry) above
Amyloid-beta precursor protein (Homo sapiens), sequence (P05067 whole entry): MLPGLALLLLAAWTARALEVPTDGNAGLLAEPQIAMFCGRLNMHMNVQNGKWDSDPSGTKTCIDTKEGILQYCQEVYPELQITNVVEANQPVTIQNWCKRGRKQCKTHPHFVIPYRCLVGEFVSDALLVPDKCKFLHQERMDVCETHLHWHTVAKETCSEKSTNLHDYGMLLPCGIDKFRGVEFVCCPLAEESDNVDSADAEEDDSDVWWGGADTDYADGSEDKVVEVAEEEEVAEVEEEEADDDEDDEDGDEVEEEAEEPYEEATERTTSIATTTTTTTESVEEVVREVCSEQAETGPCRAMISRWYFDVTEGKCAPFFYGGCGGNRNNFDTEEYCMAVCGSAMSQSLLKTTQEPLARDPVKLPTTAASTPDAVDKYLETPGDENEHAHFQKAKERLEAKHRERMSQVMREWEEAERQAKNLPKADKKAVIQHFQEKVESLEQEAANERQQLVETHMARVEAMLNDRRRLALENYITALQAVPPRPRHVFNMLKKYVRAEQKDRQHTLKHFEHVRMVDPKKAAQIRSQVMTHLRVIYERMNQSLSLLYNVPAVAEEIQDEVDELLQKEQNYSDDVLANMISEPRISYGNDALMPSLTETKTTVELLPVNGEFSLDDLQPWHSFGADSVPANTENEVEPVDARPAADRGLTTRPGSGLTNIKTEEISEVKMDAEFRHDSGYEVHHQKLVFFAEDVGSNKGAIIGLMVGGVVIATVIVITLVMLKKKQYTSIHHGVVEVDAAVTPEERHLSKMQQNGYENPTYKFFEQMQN

SMILES | pIC50 (Acetylcholinesterase) | Ratio IC50 [1] | pIC50 (Cholinesterase [2]) | further results
Cc1cccc(C[n+]2cccc(Cn3c4ccccc4c4ccccc43)c2)c1 | 4.18 | 236 | 6.55 | –
Clc1ccc(C[n+]2cccc(Cn3c4ccccc4c4ccccc43)c2)cc1.[Cl-] | 4.70 | 274 | 7.14 | Activity (Rattus norvegicus [3]): Active; pKi (Cholinesterase [4]): 7.05; Activity (Rattus norvegicus [5]): Active; viability at 10 µM (PC-12 [6]): 66%; inhibition [7]: 49.9%; Ratio IC50 [8]: 4.8; Activity (PC-12 [9]): Toxic; Activity (PC-12 [10]): inactive; Activity (Rattus norvegicus [11]): inactive; Ratio IC50 [12]: 129; Activity (Rattus norvegicus [13]): Active
Clc1cccc(C[n+]2ccc(Cn3c4ccccc4c4ccccc43)cc2)c1 | 5.03 | 26.6 | 6.46 | –
Clc1ccccc1C[n+]1ccc(Cn2c3ccccc3c3ccccc32)cc1 | 5.17 | 11.5 | 6.23 | –
Nc1c2c(nc3ccccc13)CCCC2 | – | – | – | inhibition [7]: 7.7%
Fc1ccc(C[n+]2cccc(Cn3c4ccccc4c4ccccc43)c2)cc1 | 4.53 | 225 | 6.89 | –
Clc1ccc(C[n+]2ccc(Cn3c4ccccc4c4ccccc43)cc2)cc1 | 4.72 | 11.9 | 5.80 | –
c1ccc(C[n+]2cccc(Cn3c4ccccc4c4ccccc43)c2)cc1 | 4.21 | 229 | 6.57 | –
Clc1cccc(C[n+]2cccc(Cn3c4ccccc4c4ccccc43)c2)c1 | 4.48 | 205 | 6.80 | –
Fc1ccccc1C[n+]1ccc(Cn2c3ccccc3c3ccccc32)cc1 | 4.90 | 18.9 | 6.17 | –
Fc1cccc(C[n+]2cccc(Cn3c4ccccc4c4ccccc43)c2)c1 | < 4.00 | > 133 | 6.12 | –
Cc1ccc(C[n+]2ccc(Cn3c4ccccc4c4ccccc43)cc2)cc1 | 4.81 | 19.3 | 6.09 | –
Fc1cccc(C[n+]2ccc(Cn3c4ccccc4c4ccccc43)cc2)c1 | 4.67 | 19.3 | 5.96 | –
c1ccc(C[n+]2ccc(Cn3c4ccccc4c4ccccc43)cc2)cc1 | 4.89 | 22.1 | 6.24 | –
Cc1ccc(C[n+]2cccc(Cn3c4ccccc4c4ccccc43)c2)cc1 | 4.64 | 210 | 6.96 | –
Cc1cccc(C[n+]2ccc(Cn3c4ccccc4c4ccccc43)cc2)c1 | 4.76 | 24 | 6.14 | –
Fc1ccccc1C[n+]1cccc(Cn2c3ccccc3c3ccccc32)c1 | < 4.00 | > 270 | 6.43 | –
Cc1ccccc1C[n+]1ccc(Cn2c3ccccc3c3ccccc32)cc1 | 4.92 | 34 | 6.46 | –
Fc1ccc(C[n+]2ccc(Cn3c4ccccc4c4ccccc43)cc2)cc1 | 4.73 | 21.1 | 6.05 | –
Clc1ccccc1C[n+]1cccc(Cn2c3ccccc3c3ccccc32)c1 | < 4.00 | > 263 | 6.42 | –
Cc1ccccc1C[n+]1cccc(Cn2c3ccccc3c3ccccc32)c1 | 4.28 | 239 | 6.66 | –
COc1cc2c(cc1OC)C(=O)C(CC1CCN(Cc3ccccc3)CC1)C2 (stereo not given) | – | – | – | Activity (Rattus norvegicus [14]): Active; Activity (Rattus norvegicus [15]): Active; Activity (Rattus norvegicus [16]): inactive
